From paper PMC9894920, “Development of an improved and specific inhibitor of NADPH oxidase 2 to treat traumatic brain injury” (Redox Biology, 2023)
Values after ≈ are worked out from the molar mass of the structure shown. Read-outs that look alike come from different tables or passages of the source.

Experiments:
[1] = Rat liver microsomal stability; type: in vitro ADME; conditions: for half-life: SD, rat, liver microsomes, read-out: Rat_SD/Microsomes t1/2 (m)
Experimental: (§1) The rat liver microsomal stability, parallel artificial membrane permeability assay (PAMPA), and aqueous kinetic solubility assay in phosphate-buffered saline (PBS) buffer were performed as described in the indicated references.

[2] = Aqueous kinetic solubility in PBS buffer; type: physicochemical
Experimental: as §1

Bovine Xanthine Oxidase = biological target: T1, Bovine Xanthine Oxidase (Bos taurus, UniProt P80457); assay: Xanthine oxidase / hypoxanthine luminol chemiluminescence assay; type: biochemical; conditions: xanthine oxidase with hypoxanthine; mean ± SD, n in cell; read-out: X/XO IC50
T1 construct: purchased Sigma
Experimental: Bovine Xanthine Oxidase (Sigma) was dialyzed in PBS to remove ammonium sulfate and stored at 4 °C. Hypoxanthine was prepared by heating in DMSO. Reactions were prepared by diluting xanthine oxidase in HBSS (final concentration 1.25 mU/mL) that contained 50 μM luminol and were preincubated 5 min with control or inhibitor before the addition of hypoxanthine at a final concentration of 0.5 mM. Luminescence was measured at 24 °C as described above.

NOX2 = biological target: T2, NOX2 (Homo sapiens, UniProt P04839); assay: NOX2 activity in primary human granulocytes (PMN), luminol chemiluminescence; type: cell-based; parameters: When tested against NOX2 in primary human neutrophils; endogenous in cells; host or cells: primary human granulocytes (PMN) from donor blood; conditions: mean ± SD, n in cell; read-out: NOX-2 IC50 from PMN
T2 sequence (P04839 2-570 limits assumed): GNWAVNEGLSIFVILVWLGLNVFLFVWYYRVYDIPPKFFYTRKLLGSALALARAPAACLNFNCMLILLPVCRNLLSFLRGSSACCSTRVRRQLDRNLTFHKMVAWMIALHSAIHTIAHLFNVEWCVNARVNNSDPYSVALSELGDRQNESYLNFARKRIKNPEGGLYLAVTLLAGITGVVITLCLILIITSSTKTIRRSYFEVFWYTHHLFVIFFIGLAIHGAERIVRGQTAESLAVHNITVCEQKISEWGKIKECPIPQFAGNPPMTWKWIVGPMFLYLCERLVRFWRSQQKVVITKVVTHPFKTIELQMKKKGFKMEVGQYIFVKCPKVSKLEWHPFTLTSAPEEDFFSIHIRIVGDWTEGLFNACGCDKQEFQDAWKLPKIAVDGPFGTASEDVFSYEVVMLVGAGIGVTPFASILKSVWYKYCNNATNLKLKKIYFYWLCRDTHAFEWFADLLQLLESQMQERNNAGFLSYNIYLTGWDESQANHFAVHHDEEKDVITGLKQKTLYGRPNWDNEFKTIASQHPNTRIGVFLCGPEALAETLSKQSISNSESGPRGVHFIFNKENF
T2 sequence (P13498 2-195 partner limits assumed): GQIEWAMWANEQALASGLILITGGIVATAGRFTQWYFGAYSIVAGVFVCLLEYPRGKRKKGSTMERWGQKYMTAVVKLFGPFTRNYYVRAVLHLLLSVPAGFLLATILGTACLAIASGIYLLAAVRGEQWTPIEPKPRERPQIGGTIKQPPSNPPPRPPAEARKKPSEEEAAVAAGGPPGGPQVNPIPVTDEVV
Experimental: Human blood was obtained after informed consent by the Department of Transfusion Medicine (NIH Clinical Center) and provided as de-identified specimens. Human granulocytes were isolated using Percoll density fractionation as described and NOX2 activity was assessed in white polypropylene flat bottom 96 well plates following 15 min of preincubation at 37 °C with compounds or vehicle controls using 50 μM luminol as a chemiluminescence enhancer in an assay volume of 100 μl RPMI1640 with 1.1 × 10^5 cells/well in Varioskan Lux luminometer for 30 cycles of 1 s per well (approximately 1 h).

[3] = Parallel artificial membrane permeability assay (PAMPA); type: in vitro ADME; conditions: for Papp: pH 7.4, PAMPA, pH7.4, read-out: Permeability(pH7.4) (PAMPA_Pion_Lipid 1e-6 cm/s)
Experimental: as §1

[4] = aqueous buffer, kinetic from dmso stock, read-out: Solubility

T1 sequence (P80457 whole entry): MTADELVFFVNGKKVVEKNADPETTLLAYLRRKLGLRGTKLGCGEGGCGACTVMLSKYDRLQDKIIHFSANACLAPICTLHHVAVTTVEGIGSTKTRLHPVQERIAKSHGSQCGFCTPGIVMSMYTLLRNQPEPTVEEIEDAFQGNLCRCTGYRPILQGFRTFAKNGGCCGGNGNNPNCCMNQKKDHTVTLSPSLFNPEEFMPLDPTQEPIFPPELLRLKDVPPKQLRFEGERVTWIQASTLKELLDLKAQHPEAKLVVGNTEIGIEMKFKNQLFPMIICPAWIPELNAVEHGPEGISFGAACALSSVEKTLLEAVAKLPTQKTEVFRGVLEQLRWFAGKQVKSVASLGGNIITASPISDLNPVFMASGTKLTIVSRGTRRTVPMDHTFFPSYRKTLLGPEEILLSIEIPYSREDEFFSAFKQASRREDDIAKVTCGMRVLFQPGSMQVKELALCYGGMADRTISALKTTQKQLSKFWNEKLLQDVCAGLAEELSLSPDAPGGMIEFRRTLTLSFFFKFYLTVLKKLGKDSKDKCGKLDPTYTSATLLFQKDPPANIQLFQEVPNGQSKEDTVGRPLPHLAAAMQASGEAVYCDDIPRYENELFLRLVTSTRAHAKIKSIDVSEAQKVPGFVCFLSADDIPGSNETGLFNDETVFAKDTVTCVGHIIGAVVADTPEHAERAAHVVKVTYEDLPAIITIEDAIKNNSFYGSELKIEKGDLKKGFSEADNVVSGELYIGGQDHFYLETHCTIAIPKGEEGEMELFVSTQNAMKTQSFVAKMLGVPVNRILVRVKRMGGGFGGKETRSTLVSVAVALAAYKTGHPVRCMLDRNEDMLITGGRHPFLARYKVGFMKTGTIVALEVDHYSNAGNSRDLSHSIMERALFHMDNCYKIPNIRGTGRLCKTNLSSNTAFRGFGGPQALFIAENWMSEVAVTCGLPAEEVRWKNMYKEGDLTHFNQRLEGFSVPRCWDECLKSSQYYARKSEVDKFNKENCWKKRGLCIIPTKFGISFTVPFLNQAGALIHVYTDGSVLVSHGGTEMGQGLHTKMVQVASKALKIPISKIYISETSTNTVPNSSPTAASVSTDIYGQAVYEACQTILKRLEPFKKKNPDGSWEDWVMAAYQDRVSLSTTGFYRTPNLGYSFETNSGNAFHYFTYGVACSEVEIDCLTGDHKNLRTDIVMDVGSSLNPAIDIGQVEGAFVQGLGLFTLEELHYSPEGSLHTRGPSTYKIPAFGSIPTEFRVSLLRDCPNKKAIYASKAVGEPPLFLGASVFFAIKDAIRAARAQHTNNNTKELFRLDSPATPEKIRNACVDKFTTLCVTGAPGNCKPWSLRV

SMILES | half-life [1] [min] | solubility [2, 4] [µg/mL] | IC50 (Bovine Xanthine Oxidase) [nM] | IC50 (NOX2) [nM] | Papp [3] [×10⁻⁶ cm/s] | Rat_SD/Microsomes t1/2 (m) [1] [m] | solubility [2] [µg/mL] | Permeability(pH7.4) (PAMPA_Pion_Lipid 1e-6 cm/s) [3]
O=C1CCc2ccc(-c3cn(C4CC4)c4nccc(N[S+](=O)([O-])c5ccn(C6CC6)n5)c34)cc21 [NCGC00650070, [O-][S+](=O)(NC1=C2C(=CN(C3CC3)C2=NC=C1)C4=CC5=C(CCC5=O)C=C4)C6=NN(C=C6)C7CC7] | 13.2 | 38.5 (≈ 81.3 µM) |  | 966 | 256 |  |  | 
CCn1cc(-c2ccc3c(c2)N(C2CC2)CC3)c2c(N[S+](=O)([O-])c3ccn(C)n3)ccnc21 [NCGC00650067, CCN1C=C(C2=C(N[S+]([O-])(=O)C3=NN(C)C=C3)C=CN=C12)C4=CC5=C(CCN5C6CC6)C=C4] | 1 | 13.9 (≈ 30 µM) | 7610 ± 10200 | 2400 ± 2260 | 819 |  |  | 
CN1CCc2ccc(-c3cn(CC(F)(F)F)c4nccc(N[S+](=O)([O-])c5ccn(C)n5)c34)cc21 [NCGC00600903, CN1C=CC(=N1)[S+]([O-])(=O)NC2=C3C(=CN(CC(F)(F)F)C3=NC=C2)C4=CC5=C(CCN5C)C=C4] | 3.3 | 12.2 (≈ 24.9 µM) | 56 ± 79 | 1680 ± 2070 | 53.6 |  |  | 
Cn1ccc([S+](=O)([O-])Nc2ccnc3c2c(-c2ccc4c(c2)CCC4)cn3C2CC2)n1 [NCGC00650026, CN1C=CC(=N1)[S+]([O-])(=O)NC2=C3C(=CN(C4CC4)C3=NC=C2)C5=CC6=C(CCC6)C=C5] | 0.9 | 1 (≈ 2.31 µM) | > 20000 | 3100 ± 2590 | 1420 |  |  | 
CN1CCc2ccc(-c3cn(C4CC4)c4nccc(N[S+](=O)([O-])c5ccn(C)n5)c34)cc21 [NCGC00600897, CN1C=CC(=N1)[S+]([O-])(=O)NC2=C3C(=CN(C4CC4)C3=NC=C2)C5=CC6=C(CCN6C)C=C5] | 1.7 | > 66 | 1380 ± 1160 |  | 171 |  |  | 
CC(n1cc(-c2ccc3c(c2)N(C)CC3)c2c(N[S+](=O)([O-])c3ccn(C)n3)ccnc21)C(F)(F)F (centres unmarked) [NCGC00600887, CC(N1C=C(C2=C(N[S+]([O-])(=O)C3=NN(C)C=C3)C=CN=C12)C4=CC5=C(CCN5C)C=C4)C(F)(F)F] | 3.3 | 21.9 (≈ 43.4 µM) | 872 | 541 | 629 |  |  | 
O=[S+]([O-])(Nc1ccnc2c1c(-c1ccc3c(c1)N(C1CC1)CC31CC1)cn2C1CC1)c1ccn(C2CC2)n1 [NCGC00650101, [O-][S+](=O)(NC1=C2C(=CN(C3CC3)C2=NC=C1)C4=CC5=C(C=C4)C6(CC6)CN5C7CC7)C8=NN(C=C8)C9CC9] | 1.2 | 36.8 (≈ 69.9 µM) | 1220 ± 320 | 11600 ± 8720 | 81.8 |  |  | 
CC(n1cc(-c2ccc3ccn(C)c3c2)c2c(N[S+](=O)([O-])c3ccn(C)n3)ccnc21)C(F)(F)F (centres unmarked) [NCGC00600714, CC(N1C=C(C2=C(N[S+]([O-])(=O)C3=NN(C)C=C3)C=CN=C12)C4=CC5=C(C=CN5C)C=C4)C(F)(F)F] | 7.7 | < 1 | 4700 | 328 | 479 |  |  | 
Cn1ccc([S+](=O)([O-])Nc2ccnc3c2c(-c2ccc4c(c2)C(NC(=O)OC(C)(C)C)CC4)cn3C2CC2)n1 (centres unmarked) [NCGC00650021, CN1C=CC(=N1)[S+]([O-])(=O)NC2=C3C(=CN(C4CC4)C3=NC=C2)C5=CC6=C(CCC6NC(=O)OC(C)(C)C)C=C5] | 5.7 | 26.2 (≈ 47.8 µM) | 4430 | 2420 | 1940 |  |  | 
CC(C)n1cc(-c2ccc3c(c2)N(C)CC3)c2c(N[S+](=O)([O-])c3ccn(C)n3)ccnc21 [NCGC00507962, CC(C)[N]1C=C(C2=CC3=C(CCN3C)C=C2)C4=C(N[S+]([O-])(=O)C5=N[N](C)C=C5)C=CN=C14] | 1.1 | 36.7 (≈ 81.5 µM) |  |  | 1030 |  |  | 
Cn1ccc([S+](=O)([O-])Nc2ccnc3c2c(-c2ccc4ccn(C)c4c2)cn3C2CC2)n1 [NCGC00650045, CN1C=CC(=N1)[S+]([O-])(=O)NC2=C3C(=CN(C4CC4)C3=NC=C2)C5=CC6=C(C=CN6C)C=C5] | 1 | 2.2 (≈ 4.93 µM) |  | > 20000 |  |  |  | 
O=C1CCc2ccc(-c3cn(C4CC4)c4nccc(N[S+](=O)([O-])c5ccn(C6CC6)n5)c34)cc21 [NCGC00650069, [O-][S+](=O)(NC1=C2C(=CN(C3CC3)C2=NC=C1)C4=CC5=C(CCC5=O)C=C4)C6=NN(C=C6)C7CC7] |  |  |  | 1780 |  | 16 | 30 (≈ 63.4 µM) | 188.5 1e-6 cm/s
CNC1CCc2ccc(-c3cn(C4CC4)c4nccc(N[S+](=O)([O-])c5ccn(C)n5)c34)cc21 (centres unmarked) [NCGC00650057, CNC1CCC2=C1C=C(C=C2)C3=CN(C4CC4)C5=NC=CC(N[S+]([O-])(=O)C6=NN(C)C=C6)=C35] | 17.9 | > 68 | 2290 ± 3230 | 1610 | 4 |  |  | 
O=C1N(C2CC2)c2cc(-c3cn(C4CC4)c4nccc(N[S+](=O)([O-])c5ccn(C6CC6)n5)c34)ccc2C12CC2 [NCGC00650041, [O-][S+](=O)(NC1=C2C(=CN(C3CC3)C2=NC=C1)C4=CC5=C(C=C4)C6(CC6)C(=O)N5C7CC7)C8=NN(C=C8)C9CC9] | 6.2 | 2 (≈ 3.7 µM) | 180 |  | 615 |  |  | 

Continued, in another order:

half-life [1] [min] | solubility [2, 4] [µg/mL] | IC50 (Bovine Xanthine Oxidase) [nM] | IC50 (NOX2) [nM] | Papp [3] [×10⁻⁶ cm/s] | SMILES | Rat_SD/Microsomes t1/2 (m) [1] [m] | solubility [2] [µg/mL] | Permeability(pH7.4) (PAMPA_Pion_Lipid 1e-6 cm/s) [3]
4.6 | 8.2 (≈ 15.3 µM) | > 20000 | 3930 |  | Cn1ccc([S+](=O)([O-])Nc2ccnc3c2c(-c2ccc4c(c2)N(C(=O)OC(C)(C)C)CC4)cn3C2CC2)n1 [NCGC00650103, CN1C=CC(=N1)[S+]([O-])(=O)NC2=C3C(=CN(C4CC4)C3=NC=C2)C5=CC6=C(CCN6C(=O)OC(C)(C)C)C=C5] |  |  | 
 | 5.3 (≈ 9.99 µM) | 4070 ± 5430 | 2050 | 160 | Cn1ccc([S+](=O)([O-])Nc2ccnc3c2c(-c2ccc4c(c2)N(C2CC2)CC4)cn3CC2CCCCC2)n1 [NCGC00650102, CN1C=CC(=N1)[S+]([O-])(=O)NC2=C3C(=CN(CC4CCCCC4)C3=NC=C2)C5=CC6=C(CCN6C7CC7)C=C5] |  |  | 
0.9 | 13.1 (≈ 24.6 µM) | 2300 | 11800 | 907 | Cn1ccc([S+](=O)([O-])Nc2ccnc3c2c(-c2ccc4c(c2)N(C2CC2)CC4)cn3CC2CCOCC2)n1 [NCGC00650068, CN1C=CC(=N1)[S+]([O-])(=O)NC2=C3C(=CN(CC4CCOCC4)C3=NC=C2)C5=CC6=C(CCN6C7CC7)C=C5] |  |  | 
11.8 | > 66 | 2340 ± 2320 | 4250 | 72.8 | Cn1ccc([S+](=O)([O-])Nc2ccnc3c2c(-c2ccc4c(c2)C(=O)CC4)cn3C2CC2)n1 [NCGC00650061, CN1C=CC(=N1)[S+]([O-])(=O)NC2=C3C(=CN(C4CC4)C3=NC=C2)C5=CC6=C(CCC6=O)C=C5] |  |  | 
18.2 | 31.1 (≈ 69.2 µM) | 19000 | > 20000 | 182 | Cn1ccc([S+](=O)([O-])Nc2ccnc3c2c(-c2ccc4c(c2)C(O)CC4)cn3C2CC2)n1 (centres unmarked) [NCGC00650073, CN1C=CC(=N1)[S+]([O-])(=O)NC2=C3C(=CN(C4CC4)C3=NC=C2)C5=CC6=C(CCC6O)C=C5] |  |  | 
6.9 | 35.9 (≈ 75.5 µM) | > 20000 |  | 386 | O=[S+]([O-])(Nc1ccnc2c1c(-c1ccc3c(c1)C(O)CC3)cn2C1CC1)c1ccn(C2CC2)n1 (centres unmarked) [NCGC00650064, OC1CCC2=C1C=C(C=C2)C3=CN(C4CC4)C5=NC=CC(N[S+]([O-])(=O)C6=NN(C=C6)C7CC7)=C35] |  |  | 
